Experimental data taken from paper PMC6433232, “Targeting mitochondria in cancer therapy could provide a basis for the selective anti-cancer activity” (PLoS ONE, 2019).
Read-outs that look alike come from different tables or passages of the source.

Tested on: primary acute myeloid leukemia (AML) cells obtained from patients
Experiment: Kinase inhibitor library screening with and without NSC130362, primary AML cells
Assay type: cell-based, Human
[1] = ratio of EC50 for inhibitor to EC50 for inhibitor/NSC130362 combination, NSC130362 10 μM, Screen N 1
[2] = ratio of EC50 for inhibitor to EC50 for inhibitor/NSC130362 combination, NSC130362 10 μM, Screen N 2
[3] = ratio of EC50 for inhibitor to EC50 for inhibitor/NSC130362 combination, NSC130362 10 μM, Screen N 3

Row | Molecule | EC50 decrease, fold (Screen N 1) [1] | EC50 decrease, fold (Screen N 2) [2] | EC50 decrease, fold (Screen N 3) [3] | EC50 decrease, fold (Screen N 1) | EC50 decrease, fold (Screen N 2) | EC50 decrease, fold (Screen N 3)
1 | CC(=O)c1c(C)c2cnc(Nc3ccc(N4CCNCC4)cn3)nc2n(C2CCCC2)c1=O [Palbociclib] | 1.6 fold | 1.0 fold | 1.8 fold |  |  | 
2 | CNC(=O)c1cc(Oc2ccc(NC(=O)Nc3ccc(Cl)c(C(F)(F)F)c3)c(F)c2)ccn1 [Regorafenib (BAY 73-4506)] | 1.0 fold | 1.2 fold | 0.0284 fold |  |  | 
3 | COc1c(Cl)cc2c([nH]c3cnccc32)c1NC(=O)c1cccnc1C [MLN120B] | 6.2 fold | 1.0 fold | 121.2 fold |  |  | 
4 | CS(=O)(=O)CCNCc1ccc(-c2ccc3ncnc(Nc4ccc(OCc5cccc(F)c5)c(Cl)c4)c3c2)o1 [Lapatinib] |  | 1.0 fold |  |  |  | 
5 | CN1CCN(c2ccc3nc(-c4c(N)c5c(F)cccc5[nH]c4=O)[nH]c3c2)CC1 [Dovitinib (CHIR-258)] | 2.6 fold | 1.0 fold | 96.7 fold |  |  | 
6 | CN1CC[C@H](c2c(O)cc(O)c3c(=O)cc(-c4ccccc4Cl)oc23)[C@H](O)C1 [Flavopiridol] | 2.0 fold | 1.1 fold | 0.0683 fold |  |  | 
7 | COc1cc2nccc(Oc3ccc(NC(=O)NC4CC4)c(Cl)c3)c2cc1C(N)=O [Lenvatinib] | 1.9 fold | 1.0 fold | 1.5 fold |  |  | 
8 | O=C(c1ccc(F)c(F)c1Nc1ccc(I)cc1F)N1CC(O)([C@@H]2CCCCN2)C1 [Combimetinib (GDC-0973)] |  | 0.6 fold |  |  |  | 
9 | COCCNCc1ccc(-c2cc3nccc(Oc4ccc(NC(=S)NC(=O)Cc5ccc(F)cc5)cc4F)c3s2)nc1 [MGCD-265] | 6.0 fold | 1.0 fold | 97.6 fold |  |  | 
10 | Cc1ccccc1C(C(=O)NC1CCCCC1)N(C(=O)Cn1ccnc1C)c1cccc(F)c1 (centres unmarked) [AGI-5198] | 1.0 fold | 1.0 fold | 0.16 fold |  |  | 
11 | CC[C@H](C)C(=O)O[C@H]1C[C@@H](C)C=C2C=C[C@H](C)[C@H](CC[C@@H]3C[C@@H](O)CC(=O)O3)[C@H]21 [Lovastatin] |  |  | 1.0 fold |  |  | 
12 | Nc1ncnc2c1c(-c1cccc(OCc3ccccc3)c1)cn2C1CC(CN2CCCC2)C1 (centres unmarked) [NVP-ADW742] | 3.1 fold | 1.0 fold | 1.0 fold |  |  | 
13 | CCn1c(-c2nonc2N)nc2c(C#CC(C)(C)O)ncc(OC[C@H]3CCCNC3)c21 [GSK690693] | 0.165 fold | 1.0 fold | 1.1 fold |  |  | 
14 | CN(C)CC[C@H](CSc1ccccc1)Nc1ccc(S(=O)(=O)NC(=O)c2ccc(N3CCN(Cc4ccccc4-c4ccc(Cl)cc4)CC3)cc2)cc1[N+](=O)[O-] [ABT-737] | 5.4 fold | 1.0 fold | 0.000857 fold |  |  | 
15 | COc1cc(Nc2c(C#N)cnc3cc(OCCCN4CCN(C)CC4)c(OC)cc23)c(Cl)cc1Cl [Bosutinib (SKI-606)] | 15.8 fold | 1.0 fold | 29.6 fold |  |  | 
16 | O=C(Nc1cccc2cccnc12)c1ccc(N2C(=O)[C@@H]3[C@H](C2=O)[C@@H]2C=C[C@H]3C2)cc1 [IWR1] |  | 1.0 fold |  |  |  | 
17 | Clc1ccc(Nc2nnc(Cc3ccncc3)c3ccccc23)cc1 [Vatalanib (PTK787)] | 0.245 fold | 1.0 fold | 0.7 fold |  |  | 
18 | Cc1c[nH]c(-c2cnc(NCCNc3ccc(C#N)cn3)nc2-c2ccc(Cl)cc2Cl)n1 [CHIR-99021] | 1.0 fold | 1.0 fold | 1.0 fold |  |  | 
19 | Oc1nc(-c2ccc(C(F)(F)F)cc2)nc2c1CSCC2 [XAV-939] | 6.5 fold | 1.0 fold | 1.0 fold |  |  | 
20 | CC[C@@H]1C(=O)N(C)c2cnc(Nc3ccc(C(=O)N[C@H]4CC[C@H](N5CCN(CC6CC6)CC5)CC4)cc3OC)nc2N1C(C)C [Volasertib (BI-6727)] | 0.2 fold | 0.4 fold | 68.5 fold |  |  | 
21 | CN(C)C[C@@H]1CCn2cc(c3ccccc32)C2=C(C(=O)NC2=O)c2cn(c3ccccc23)CCO1 [LY-333531] | 3.3 fold | 1.0 fold | 1.1 fold |  |  | 
22 | NC(=O)c1ccc(-c2nc(-c3ccc4c(c3)OCO4)c(-c3ccccn3)[nH]2)cc1 [SB-431542] | 1.0 fold | 1.0 fold | 1058.2 fold |  |  | 

Row | Molecule | EC50 decrease, fold (Screen N 1) [1] | EC50 decrease, fold (Screen N 2) [2] | EC50 decrease, fold (Screen N 3) [3] | EC50 decrease, fold (Screen N 1) | EC50 decrease, fold (Screen N 2) | EC50 decrease, fold (Screen N 3)
23 | COc1ccc(C2=N[C@@H](c3ccc(Cl)cc3)[C@@H](c3ccc(Cl)cc3)N2C(=O)N2CCNC(=O)C2)c(OC(C)C)c1 [Nutlin 3a] | 0.1 fold | 1.0 fold | 0.9 fold |  |  | 
24 | CCN(CCO)CCCOc1ccc2c(Nc3cc(CC(=O)Nc4cccc(F)c4)[nH]n3)ncnc2c1 [Barasertib (AZD1152-HQPA)] | 1.0 fold | 1.0 fold | 642.8 fold |  |  | 
25 | CC(C)C[C@H](NC(=O)[C@H](Cc1ccccc1)NC(=O)c1cnccn1)B(O)O [Velcade] |  |  |  | 0.457 fold | 0.468 fold | 0.0645 fold
26 | Cc1cc(Nc2cc(N3CCN(C)CC3)nc(Sc3ccc(NC(=O)C4CC4)cc3)n2)n[nH]1 [Tozasertib (VX-680)] | 7.5 fold | 1.0 fold | 0.9 fold |  |  | 
27 | Cc1[nH]c(/C=C2\C(=O)Nc3ccc(S(=O)(=O)Cc4c(Cl)cccc4Cl)cc32)c(C)c1C(=O)N1CCC[C@@H]1CN1CCCC1 [PHA-665752] | 1.1 fold | 1.0 fold | 0.226 fold |  |  | 
28 | JAK Inhibitor I | 0.847 fold | 1.0 fold | 46.2 fold |  |  | 
29 | O=C(O)c1ccc(Nc2ncc3c(n2)-c2ccc(Cl)cc2C(c2c(F)cccc2F)=NC3)cc1 [MLN8054] | 1.3 fold | 1.0 fold | 0.001 fold |  |  | 
30 | NF-kB Activation Inhibitor | 11.2 fold | 1.0 fold | 0.0602 fold |  |  | 
31 | CCN(CC)CCNC(=O)c1c(C)[nH]c(/C=C2\C(=O)Nc3ccc(F)cc32)c1C [Sunitinib] |  | 1.0 fold |  |  |  | 
32 | CCOc1cc2ncc(C#N)c(Nc3ccc(OCc4ccccn4)c(Cl)c3)c2cc1NC(=O)/C=C/CN(C)C [Neratinib (HKI-272)] | 5.7 fold | 1.0 fold | 1.0 fold |  |  | 
33 | CCOc1cc2ncc(C#N)c(Nc3ccc(F)c(Cl)c3)c2cc1NC(=O)/C=C/CN(C)C [Pelitinib (EKB-569)] | 1.4 fold | 0.843 fold | 46.0 fold |  |  | 
34 | COc1cc2/c(=N/c3ccc(Br)cc3F)nc[nH]c2cc1OCC1CCN(C)CC1 [Vandetanib (ZD6474)] | 0.5 fold | 1.0 fold |  |  |  | 
35 | NC(=O)c1cnc(N[C@@H]2CCCC[C@@H]2N)nc1Nc1cccc(-n2nccn2)c1 [PRT062607] | 8.1 fold | 1.0 fold | 265.0 fold |  |  | 
36 | Cc1[nH]nc2ccc(-c3cncc(OC[C@@H](N)Cc4ccccc4)c3)cc12 [A-674563] | 3.1 fold | 1.2 fold | 6.2 fold |  |  | 
37 | Cc1nc(-c2cn3c(n2)-c2ccc(-c4cnn(C(C)(C)C(N)=O)c4)cc2OCC3)n(C(C)C)n1 [Taselisib (GDC-0032)] |  | 2.8 fold |  |  |  | 
38 | Cn1cnc2c(F)c(Nc3ccc(Br)cc3Cl)c(C(=O)NOCCO)cc21 [Selumetinib (AZD6244)] | 6.5 fold | 1.5 fold | 1.0 fold |  |  | 
39 | Cc1ccc(NC(=O)c2ccc(CN3CCN(C)CC3)cc2)cc1Nc1nc(-c2cccnc2)cs1 [Masitinib (AB-1010)] |  |  |  | 0.174 fold | 1.0 fold | 3.7 fold
40 | CCc1cc(Nc2nccc(-c3c(-c4ccc(OC)c(C(=O)Nc5c(F)cccc5F)c4)nc4ccccn34)n2)c(OC)cc1N1CCC(N2CCN(S(C)(=O)=O)CC2)CC1 [GSK-1904529A] | 41.6 fold | 1.0 fold | 44.8 fold |  |  | 
41 | CN(C)CC(=O)N1CCC(c2ccc(NC(=O)c3nc(C#N)c[nH]3)c(C3=CCCCC3)c2)CC1 [JNJ-28312141] | 0.3 fold | 1.0 fold | 2.3 fold |  |  | 
42 | CCS(=O)(=O)O.COC(=O)c1ccc2c(c1)NC(=O)/C2=C(\Nc1ccc(N(C)C(=O)CN2CCN(C)CC2)cc1)c1ccccc1 [Vargetef] | 0.229 fold | 1.0 fold | 0.14 fold |  |  | 
43 | Cn1c(=O)n(-c2ccc(C(C)(C)C#N)cc2)c2c3cc(-c4cnc5ccccc5c4)ccc3ncc21 [BEZ235] | 4.0 fold | 0.7 fold | 8.8 fold |  |  | 
